Assays:
aldehyde oxidase [1] = biological target: T1, aldehyde oxidase (Homo sapiens, UniProt Q06278); test: Metabolite formation in pooled human liver cytosol incubations without cofactors; type: in vitro ADME; set-up: key: yes: Metabolite is formed in presence of human liver cytosol in the absence of cofactors as indication of aldehyde oxidase mediated metabolism; Metabolite is not detected in cytosol incubations; conditions: human liver cytosol 5 mg/ml, 10 μM test compound, 60 min, metabolite of the same line
T1 construct: endogenous in cells; host or cells: cryopreserved primary human hepatocytes
T1 sequence (Q06278 1-1338): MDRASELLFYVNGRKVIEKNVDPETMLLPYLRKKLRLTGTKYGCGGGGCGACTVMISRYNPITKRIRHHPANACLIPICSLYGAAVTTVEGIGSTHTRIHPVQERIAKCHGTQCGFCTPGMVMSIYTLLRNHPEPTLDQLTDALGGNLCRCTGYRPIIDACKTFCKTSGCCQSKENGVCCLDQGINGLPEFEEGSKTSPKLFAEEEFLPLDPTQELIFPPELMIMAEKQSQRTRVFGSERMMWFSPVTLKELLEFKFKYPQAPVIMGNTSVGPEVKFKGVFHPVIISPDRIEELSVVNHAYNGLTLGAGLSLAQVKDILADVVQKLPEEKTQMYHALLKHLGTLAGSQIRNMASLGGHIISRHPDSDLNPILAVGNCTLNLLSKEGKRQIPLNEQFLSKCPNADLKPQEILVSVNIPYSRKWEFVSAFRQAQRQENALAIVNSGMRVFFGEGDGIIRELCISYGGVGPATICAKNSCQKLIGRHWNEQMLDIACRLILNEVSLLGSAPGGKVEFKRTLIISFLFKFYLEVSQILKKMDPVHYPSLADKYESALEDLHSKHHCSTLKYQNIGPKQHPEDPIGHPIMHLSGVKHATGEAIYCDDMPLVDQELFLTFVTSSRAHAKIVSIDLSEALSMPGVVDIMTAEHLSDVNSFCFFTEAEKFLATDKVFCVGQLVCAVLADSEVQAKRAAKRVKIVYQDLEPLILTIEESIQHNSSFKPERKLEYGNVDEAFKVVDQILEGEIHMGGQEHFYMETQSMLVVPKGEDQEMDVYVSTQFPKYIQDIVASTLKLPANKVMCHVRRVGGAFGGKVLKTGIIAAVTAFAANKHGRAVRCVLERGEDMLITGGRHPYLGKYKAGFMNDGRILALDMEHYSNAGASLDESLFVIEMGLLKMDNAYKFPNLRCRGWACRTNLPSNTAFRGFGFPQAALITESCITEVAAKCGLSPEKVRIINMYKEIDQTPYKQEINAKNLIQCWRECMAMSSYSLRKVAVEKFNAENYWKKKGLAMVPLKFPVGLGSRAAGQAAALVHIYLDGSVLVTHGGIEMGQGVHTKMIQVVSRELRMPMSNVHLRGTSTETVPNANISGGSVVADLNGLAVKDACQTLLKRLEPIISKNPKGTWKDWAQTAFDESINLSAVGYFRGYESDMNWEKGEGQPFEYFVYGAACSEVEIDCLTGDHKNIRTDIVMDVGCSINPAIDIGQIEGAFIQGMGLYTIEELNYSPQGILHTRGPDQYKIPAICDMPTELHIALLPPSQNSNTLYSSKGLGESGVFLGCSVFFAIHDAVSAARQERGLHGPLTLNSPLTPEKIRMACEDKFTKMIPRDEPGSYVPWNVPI
Description: (§1) In vitro metabolite profiling to evaluate the involvement of aldehyde oxidase in addition to CYP-mediated metabolic pathways is based on the semiquantitative analysis of the formation of oxygenated metabolites in primary human hepatocytes and the reduction in their formation in presence of the specific aldehyde oxidase inhibitor hydralazine. If respective hydralazine-inhibitable metabolites are also formed in human liver cytosol incubations in the absence of any cofactors, involvement of aldehyde oxidase in the metabolism of the respective compound is considered likely.
The involvement of aldehyde oxidase in the metabolic transformation of the test compound is confirmed at 37° C. with pooled human liver cytosol fractions. The incubations, conducted at a final incubation volume of 60 μl per time point, are composed of phosphate buffer (100 mM, pH 7.4), magnesium chloride (5 mM), and human liver cytosol (5 mg/ml). Following a short preincubation period at 37° C., the reactions are initiated by addition of the test compound, resulting in a final concentration of 10 μM. After 0 and 60 minutes, the incubations are terminated by transferring an aliquot into organic solvent, followed by centrifugation (10000 g, 5 min). The resulting supernatant is used for bioanalysis by liquid chromatography-high resolution mass spectrometry for identification of putative metabolites.

aldehyde oxidase [2] = biological target: T1, aldehyde oxidase; test: In vitro metabolite profiling in primary human hepatocytes with or without hydralazine; type: in vitro ADME; conditions: for % Parent of drug-related material: 1 μM test compound; for Contribution of AO to oxidative metabolism: sum of AO-formed metabolites
Description: as §1
The involvement of aldehyde oxidase in metabolic transformation of the test compound is investigated using primary human hepatocytes in suspension in presence or absence of the specific aldehyde oxidase inhibitor hydralazine. After recovery from cryopreservation, human hepatocytes are incubated in Dulbecco's modified eagle medium supplemented with 3.5 μg glucagon/500 ml, 2.5 mg insulin/500 ml and 3.75 mg/500 ml hydrocortisone) containing 5% human serum.
Following a 30 min preincubation in a cell culture incubator (37° C., 10% CO2) with or without 50 μM hydralazine, test compound solution is spiked into the hepatocyte suspension to obtain a final cell density of 1.0*10^6 to 4.0*10^6 cells/mi (depending on the metabolic turnover rate of the compound observed with primary human hepatocytes), a final test compound concentration of 1 μM, and a final DMSO concentration of 0.05%.
The cells are incubated for six hours (incubator, horizontal shaker) and samples are removed from the incubation after 0, 0.5, 1, 2, 4 or 6 hours, depending on the metabolic turnover rate. Samples are quenched with acetonitrile and pelleted by centrifugation. The supernatant is transferred to a 96-deepwell plate, evaporated under nitrogen and resuspended prior to bioanalysis by liquid chromatography-high resolution mass spectrometry for identification of putative metabolites.

human GPR52 = biological target: T2, human GPR52 (Homo sapiens, UniProt Q9Y2T5); test: HTRF assay for direct cAMP measurement; type: cell-based; conditions: CHO-K1 cells stably expressing recombinant human GPR52, mean EC50
T2 construct: expressed in transfected cells; host or cells: CHO-K1
Description: Homogeneous Time-Resolved Fluorescence (HTRF) Assay for Direct cAMP Measurement.
HTRF cAMP assays were performed using commercially available assay kits according to the manufacturer's instructions (cAMP Dynamic 2 Assay Kit; #62AM4PEJ, Cisbio Bioassays, Bedford, Mass.). An aliquot of CHO-K1 cells stably expressing recombinant human GPR52 is thawed and resuspended in cell buffer (1×PBS (w/o Ca^2+/Mg^2+)) at a density of 4×10^5 cells per mL Test compounds were solubilized in DMSO to 10 mM stock solutions and serially diluted in DMSO using 6-fold dilutions to generate 8-point dose response curves. These serially diluted samples were then diluted 1:50 in compound dilution buffer (1×PBS (w/o Ca^2+/Mg^2+) containing 0.5 mM IBMX, 0.1% BSA) to achieve a 4× stock. The diluted compounds were transferred (5 μL per well) in duplicate to the 384-well assay plate (Optiplate #6007290, PerkinElmer, Waltham, Mass.). Both a positive (reference compound) and negative (non-stimulated vehicle) control are included in each assay run in column 23. The cell suspension was subsequently dispensed into the 384-well assay plates at 15 μL per well (6000 cells) such that the compound was diluted to 1×. […] After a one-hour incubation at room temperature, 10 μL of cAMP D2 reagent followed by 10 μL of cryptate reagent (provided in the Cisbio kit) was added to each well. Plates were then incubated at room temperature for one hour prior to reading. Time-resolved fluorescence measurements were collected on an EnVision® HTRF plate reader (PerkinElmer, Waltham, Mass.). Counts from the plate reader were fit to the cAMP standard curve included on each plate to determine the amount of cAMP in each test well. The % control was calculated based on the positive control set at […]. Dose-response curves were generated from the cAMP data and analyzed using a nonlinear least squares curve-fitting program to obtain EC50 values.

T2 sequence (Q9Y2T5 whole entry): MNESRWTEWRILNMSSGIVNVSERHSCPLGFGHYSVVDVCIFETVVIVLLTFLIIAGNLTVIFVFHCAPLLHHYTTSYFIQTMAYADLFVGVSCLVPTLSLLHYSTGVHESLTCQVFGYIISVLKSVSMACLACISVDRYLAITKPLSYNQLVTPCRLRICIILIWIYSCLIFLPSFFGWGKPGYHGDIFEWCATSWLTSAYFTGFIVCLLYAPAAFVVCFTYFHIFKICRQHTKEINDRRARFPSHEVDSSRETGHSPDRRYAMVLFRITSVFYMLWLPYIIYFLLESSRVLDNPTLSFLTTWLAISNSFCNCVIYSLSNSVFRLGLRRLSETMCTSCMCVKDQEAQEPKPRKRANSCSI

Structure (SMILES)	Formation in human liver cytosol incubations [yes/no] (aldehyde oxidase [1])	% Parent of drug-related material (aldehyde oxidase [2]) [%]	Contribution of AO to oxidative metabolism (aldehyde oxidase [2]) [%]	EC50 (human GPR52) [nM]
Cc1cc(NC(=O)c2nccnc2N2CC(Oc3ccc(F)c(F)c3)C2)ncn1 [Example 29]	yes	96	36	5
Cc1cc(NC(=O)c2nccnc2N2CC(Oc3cc(F)cc(F)c3)C2)cnn1 [Example 13]	yes	15	15	9
O=C(Nc1ccnnc1)c1nccnc1N1CC(Oc2cc(F)c(F)c(F)c2)C1 [Example 4]	yes	94	53	5
Cc1cc(NC(=O)c2nccnc2N2CC(Oc3cc(F)cc(Cl)c3)C2)cnn1 [Example 10]	yes	91	22	4
Cc1cc(NC(=O)c2nccnc2N2CC(Oc3ccc(F)c(F)c3)C2)cnn1 [Example 12]	yes	93	56	3
Cc1cc(NC(=O)c2nccnc2N2CC(Oc3cc(F)cc(C(F)F)c3)C2)cnn1 [Example 11]	yes	86	28	6
CCc1cc(NC(=O)c2nccnc2N2CC(Oc3ccc(F)c(F)c3)C2)cnn1 [Example 21]	yes	80	67	2
Cc1cc(NC(=O)c2nccnc2N2CC(Oc3cc(F)c(F)c(F)c3)C2)ncn1 [Example 26]	–	–	–	6
O=C(Nc1ccnnc1)c1nccnc1N1CC(Oc2cc(F)cc(C(F)F)c2)C1 [Example 6]	–	–	–	6
Cc1cc(NC(=O)c2nccnc2N2CC(Oc3cc(F)c(F)c(Cl)c3)C2)cnn1 [Example 14]	yes	94	22	4
Cc1cc(NC(=O)c2nccnc2N2CC(Oc3cc(F)c(F)c(F)c3)C2)cnn1 [Example 15]	yes	71	71	5
Cc1cc(NC(=O)c2nccnc2N2CC(Oc3cc(F)c(F)c(Cl)c3)C2)ncn1 [Example 32]	–	–	–	8
